The results in this text go back to patent US20070092460A1, “Silylated compounds as precursors for self-tanning compositions” (priority 2000, published 2007).

A short description of this experiment: in vitro colour development test with lysine solution (Bobin et al.). How it is done: 0.02 mol/l of lysine are dissolved in a phosphate buffer system in accordance with DIN 19268 (pH 7). 10 ml of this solution are treated with 0.002 mol of 1,3-bis(trimethylsiloxy)-2-propanone and the mixture is stirred at 32-35° C. for 72 h.
As comparison, 10 ml of the lysine solution are treated with 0.002 mol of dihydroxyacetone and stirred at 32-35° C. for 72 h.

Take `C[Si](C)(C)OCC(=O)CO[Si](C)(C)C` [1,3-bis(trimethylsiloxy)-2-propanone, 1,3-bis(Trimethylsiloxy)-2-propanone]: the brown coloration entry (0.002 mol substance in 10 ml of 0.02 mol/l lysine in phosphate buffer pH 7, stirred at 32-35° C. for 72 h) is reported as “comparable brown coloration”. Where the note is “compared with dihydroxyacetone, lysine in phosphate buffer pH 7, 32-35° C.”, the “rate of development of the brown coloration” value is given as “develops more slowly”.
